The source made the active and inactive calls. No cut-off for these calls is given here.
Experiments:
Escherichia coli [1] = test: Antimicrobial activity against Escherichia coli UB1005 after 24 hrs by NCCLS-protocol based assay; type: functional; conditions: UB1005, 24 h
Escherichia coli [2] = test: Antimicrobial activity against Escherichia coli K88 after 24 hrs by NCCLS-protocol based assay; type: functional; conditions: K88, 24 h
Escherichia coli [3] = test: Antimicrobial activity against Escherichia coli K99 after 24 hrs by NCCLS-protocol based assay; type: functional; conditions: K99, 24 h
Pseudomonas aeruginosa [4] = test: Antimicrobial activity against Pseudomonas aeruginosa ATCC 27853 after 24 hrs by NCCLS-protocol based assay; type: functional; conditions: ATCC 27853, 24 h
Pseudomonas aeruginosa [5] = test: Antimicrobial activity against Pseudomonas aeruginosa PAO1 after 24 hrs by NCCLS-protocol based assay; type: functional; conditions: PAO1, 24 h
Pseudomonas aeruginosa [6] = test: Antimicrobial activity against Pseudomonas aeruginosa 26305 clinical isolates after 24 hrs by NCCLS-protocol based assay; type: functional; conditions: Pseudomonas aeruginosa, 26305, 24 h
Pseudomonas aeruginosa [7] = test: Antimicrobial activity against Pseudomonas aeruginosa CICC 21625 clinical isolates after 24 hrs by NCCLS-protocol based assay; type: functional; conditions: CICC 21625, 24 h
Pseudomonas aeruginosa [8] = test: Antimicrobial activity against Pseudomonas aeruginosa 25349 clinical isolates after 24 hrs by NCCLS-protocol based assay; type: functional; conditions: Pseudomonas aeruginosa, 25349, 24 h
Salmonella typhimurium [9] = test: Antimicrobial activity against Salmonella typhimurium ATCC 14028 after 24 hrs by NCCLS-protocol based assay; type: functional, Salmonella enterica subsp. enterica serovar Typhimurium; conditions: Salmonella enterica, ATCC 14028, 24 h
Acinetobacter baumannii = test: Antimicrobial activity against Acinetobacter baumannii after 24 hrs by NCCLS-protocol based assay; type: functional
Klebsiella pneumoniae [10] = test: Antimicrobial activity against Klebsiella pneumoniae after 24 hrs by NCCLS-protocol based assay; type: functional
Pseudomonas aeruginosa [11] = test: Antimicrobial activity against Pseudomonas aeruginosa ATCC 27853 at sub-MBC after 60 passages; type: functional, organism-based
Erythrocyte = test: Hemolytic activity against human RBC after 1 hr; type: ADME, cell-based
RAW264.7 = test: Cytotoxicity against mouse RAW264.7 cells assessed as cell death after 18 to 24 hrs by MTT assay; type: cell-based
[12] = Selectivity ratio of HC10 for human RBC to geometric mean of the peptide MBC for bacteria
Escherichia coli [13] = test: Bactericidal activity against Escherichia coli ATCC 25922 incubated for 4 hrs followed by culture spread on agar plates and cultured overnight in presence of CaCl2; type: functional; conditions: ATCC 25922, 4 h, read-out: MBC>99.9
Escherichia coli [14] = test: Bactericidal activity against Escherichia coli ATCC 25922 incubated for 4 hrs followed by culture spread on agar plates and cultured overnight in presence of ZnCl2; type: functional; conditions: ATCC 25922, 4 h, read-out: MBC>99.9
Escherichia coli [15] = test: Bactericidal activity against Escherichia coli ATCC 25922 incubated for 4 hrs followed by culture spread on agar plates and cultured overnight in presence of FeCl3; type: functional; conditions: ATCC 25922, 4 h, read-out: MBC>99.9
Escherichia coli [16] = test: Bactericidal activity against Escherichia coli ATCC 25922 incubated for 4 hrs followed by culture spread on agar plates and cultured overnight in presence of NH4Cl; type: functional; conditions: ATCC 25922, 4 h, read-out: MBC>99.9
Escherichia coli [17] = test: Bactericidal activity against Escherichia coli ATCC 25922 incubated for 4 hrs followed by culture spread on agar plates and cultured overnight in presence of MgCl2; type: functional; conditions: ATCC 25922, 4 h, read-out: MBC>99.9
Escherichia coli [18] = test: Bactericidal activity against Escherichia coli ATCC 25922 incubated for 4 hrs followed by culture spread on agar plates and cultured overnight in presence of 25% serum albumin; type: functional; conditions: ATCC 25922, 4 h, read-out: MBC>99.9
Escherichia coli [19] = test: Bactericidal activity against Escherichia coli ATCC 25922 incubated for 4 hrs followed by culture spread on agar plates and cultured overnight in presence of 12.5% serum albumin; type: functional; conditions: ATCC 25922, 4 h, read-out: MBC>99.9
Escherichia coli [20] = test: Bactericidal activity against Escherichia coli ATCC 25922 incubated for 4 hrs followed by culture spread on agar plates and cultured overnight in presence of 4 mg/ml trypsin; type: functional; conditions: ATCC 25922, 4 h, read-out: MBC>99.9
Escherichia coli [21] = test: Bactericidal activity against Escherichia coli ATCC 25922 incubated for 4 hrs followed by culture spread on agar plates and cultured overnight in presence of 2 mg/ml trypsin; type: functional; conditions: ATCC 25922, 4 h, read-out: MBC>99.9
Escherichia coli [22] = test: Bactericidal activity against Escherichia coli ATCC 25922 incubated for 4 hrs followed by culture spread on agar plates and cultured overnight in presence of 0.5 mg/ml trypsin; type: functional; conditions: ATCC 25922, 4 h, read-out: MBC>99.9
Escherichia coli [23] = test: Bactericidal activity against Escherichia coli ATCC 25922 incubated for 4 hrs followed by culture spread on agar plates and cultured overnight in presence of 0.25 mg/ml trypsin; type: functional; conditions: ATCC 25922, 4 h, read-out: MBC>99.9
Escherichia coli [24] = test: Bactericidal activity against Escherichia coli ATCC 25922 incubated for 4 hrs followed by culture spread on agar plates and cultured overnight in presence of 0.125 mg/ml trypsin; type: functional; conditions: ATCC 25922, 4 h, read-out: MBC>99.9
Escherichia coli [25] = test: Bactericidal activity against Escherichia coli ATCC 25922 incubated for 4 hrs followed by culture spread on agar plates and cultured overnight in presence of 1 mg/ml chymotrypsin; type: functional; conditions: ATCC 25922, 4 h, read-out: MBC>99.9
Escherichia coli [26] = test: Bactericidal activity against Escherichia coli ATCC 25922 incubated for 4 hrs followed by culture spread on agar plates and cultured overnight in presence of 0.25 mg/ml chymotrypsin; type: functional; conditions: ATCC 25922, 4 h, read-out: MBC>99.9
Escherichia coli [27] = test: Bactericidal activity against Escherichia coli ATCC 25922 incubated for 4 hrs followed by culture spread on agar plates and cultured overnight in presence of 0.125 mg/ml chymotrypsin; type: functional; conditions: ATCC 25922, 4 h, read-out: MBC>99.9
Escherichia coli [28] = test: Bactericidal activity against Escherichia coli ATCC 25922 incubated for 4 hrs followed by culture spread on agar plates and cultured overnight in presence of 4 mg/ml pepsin; type: functional, organism-based
Escherichia coli [29] = test: Bactericidal activity against Escherichia coli UB1005 incubated for 4 hrs followed by culture spread on agar plates and cultured overnight; type: functional; conditions: UB1005, 4 h, read-out: MBC>99.9
Escherichia coli [30] = test: Bactericidal activity against Escherichia coli 078 incubated for 4 hrs followed by culture spread on agar plates and cultured overnight; type: functional; conditions: Escherichia coli, 078, 4 h; read-out: MBC>99.9
Escherichia coli [31] = test: Bactericidal activity against Escherichia coli K99 incubated for 4 hrs followed by culture spread on agar plates and cultured overnight; type: functional; conditions: K99, 4 h, read-out: MBC>99.9
Pseudomonas aeruginosa [32] = test: Bactericidal activity against Pseudomonas aeruginosa 25349 clinical isolates incubated for 4 hrs followed by culture spread on agar plates and cultured overnight; type: functional; conditions: Pseudomonas aeruginosa, 25349, 4 h; read-out: MBC>99.9
Salmonella typhimurium [33] = test: Bactericidal activity against Salmonella typhimurium ATCC 14028 incubated for 4 hrs followed by culture spread on agar plates and cultured overnight; type: functional, Salmonella enterica subsp. enterica serovar Typhimurium; conditions: Salmonella enterica, ATCC 14028, 4 h; read-out: MBC>99.9
Salmonella typhimurium [34] = test: Bactericidal activity against Salmonella typhimurium C7731 incubated for 4 hrs followed by culture spread on agar plates and cultured overnight; type: functional, Salmonella enterica subsp. enterica serovar Typhimurium; conditions: Salmonella enterica, C7731, 4 h; read-out: MBC>99.9
[35] = Bactericidal activity against Salmonella pullorum C7913 incubated for 4 hrs followed by culture spread on agar plates and cultured overnight; type: functional, Salmonella enterica subsp. enterica serovar Pullorum; conditions: Salmonella enterica, C7913, 4 h; read-out: MBC>99.9
Klebsiella pneumoniae [36] = test: Bactericidal activity against Klebsiella pneumoniae incubated for 4 hrs followed by culture spread on agar plates and cultured overnight; type: functional; conditions: read-out: MBC>99.9
Trypsin = Trypsin (Homo sapiens, UniProt P07477+P07478+P35030); test: Stability of the compound assessed as trypsin (unknown origin)-mediated compound hydrolysis after 8 hrs by SDS-PAGE analysis; type: ADME, protein assay
[37] = Stability of the compound assessed as pepsin (unknown origin)-mediated compound hydrolysis after 8 hrs by SDS-PAGE analysis; type: ADME; conditions: human

For H-LRPLLRPLLRPLLRPLLRPLLRPLLRPL-NH2, the MIC95 (Escherichia coli [1]) was 2 µM, the MIC95 (Escherichia coli [2]) was 1 µM and the MIC95 (Escherichia coli [3]) was 1 µM. It also gave an MIC95 (Pseudomonas aeruginosa [4]) of 1 µM, an MIC95 (Pseudomonas aeruginosa [5]) of 1 µM and an MIC95 (Pseudomonas aeruginosa [6]) of 2 µM. It also gave an MIC95 (Pseudomonas aeruginosa [7]) of 8 µM, an MIC95 (Pseudomonas aeruginosa [8]) of 4 µM and an MIC95 (Salmonella typhimurium [9]) of 1 µM. The MIC95 (Acinetobacter baumannii) was 1 µM, the MIC95 (Klebsiella pneumoniae [10]) was 2 µM and the Activity (Pseudomonas aeruginosa [11]) was “Active”. For the same substance, the HC10 (Erythrocyte) was 64 µM, the IC50 (RAW264.7) was 0.00229 mM and the Ratio [12] was 24.7. It also gave an MBC (Escherichia coli [13]) of 16 µM, an MBC (Escherichia coli [14]) of 2 µM and an MBC (Escherichia coli [15]) of 2 µM. For the same substance, the MBC (Escherichia coli [16]) was 2 µM, the MBC (Escherichia coli [17]) was 2 µM and the MBC (Escherichia coli [18]) was 8 µM. The MBC (Escherichia coli [19]) was 4 µM, the MBC (Escherichia coli [20]) was 2 µM and the MBC (Escherichia coli [21]) was 2 µM. The MBC (Escherichia coli [22]) was 2 µM, the MBC (Escherichia coli [23]) was 2 µM and the MBC (Escherichia coli [24]) was 2 µM. For the same substance, the MBC (Escherichia coli [25]) was over 64 µM, the MBC (Escherichia coli [26]) was 2 µM and the MBC (Escherichia coli [27]) was 2 µM. For the same substance, the Activity (Escherichia coli [28]) was “inactive”, the MBC (Escherichia coli [29]) was 2 µM and the MBC (Escherichia coli [30]) was 1 µM. For the same substance, the MBC (Escherichia coli [31]) was 2 µM, the MBC (Pseudomonas aeruginosa [32]) was 8 µM and the MBC (Salmonella typhimurium [33]) was 2 µM. The MBC (Salmonella typhimurium [34]) was 2 µM, the MBC [35] was 2 µM and the MBC (Klebsiella pneumoniae [36]) was 4 µM. The Stability (Trypsin) was “Stable” and the Stability [37] was “Unstable”.

H-IRPIIRPIIRPIIRPIIRPIIRPIIRPI-NH2 gave an MIC95 (Escherichia coli [1]) of 2 µM, an MIC95 (Escherichia coli [2]) of 1 µM and an MIC95 (Escherichia coli [3]) of 1 µM. The MIC95 (Pseudomonas aeruginosa [4]) was 4 µM, the MIC95 (Pseudomonas aeruginosa [5]) was 4 µM and the MIC95 (Pseudomonas aeruginosa [6]) was 32 µM. For the same substance, the MIC95 (Pseudomonas aeruginosa [7]) was 64 µM, the MIC95 (Pseudomonas aeruginosa [8]) was 32 µM and the MIC95 (Salmonella typhimurium [9]) was 2 µM. The MIC95 (Acinetobacter baumannii) was 1 µM, the MIC95 (Klebsiella pneumoniae [10]) was 2 µM and the Activity (Pseudomonas aeruginosa [11]) was “Active”. For the same substance, the HC10 (Erythrocyte) was over 128 µM, the IC50 (RAW264.7) was 5.65 mM and the Ratio [12] was 51.5. For the same substance, the MBC (Escherichia coli [13]) was over 128 µM, the MBC (Escherichia coli [14]) was 2 µM and the MBC (Escherichia coli [15]) was 2 µM. It also gave an MBC (Escherichia coli [16]) of 2 µM, an MBC (Escherichia coli [17]) of 2 µM and an MBC (Escherichia coli [18]) of 8 µM. The MBC (Escherichia coli [19]) was 8 µM, the MBC (Escherichia coli [20]) was 2 µM and the MBC (Escherichia coli [21]) was 2 µM. The MBC (Escherichia coli [22]) was 2 µM, the MBC (Escherichia coli [23]) was 2 µM and the MBC (Escherichia coli [24]) was 2 µM. The MBC (Escherichia coli [25]) was 2 µM, the MBC (Escherichia coli [26]) was 2 µM and the MBC (Escherichia coli [27]) was 2 µM. For the same substance, the Activity (Escherichia coli [28]) was “Active”, the MBC (Escherichia coli [29]) was 2 µM and the MBC (Escherichia coli [30]) was 1 µM. For the same substance, the MBC (Escherichia coli [31]) was 2 µM, the MBC (Pseudomonas aeruginosa [32]) was 32 µM and the MBC (Salmonella typhimurium [33]) was 2 µM. The MBC (Salmonella typhimurium [34]) was 2 µM, the MBC [35] was 4 µM and the MBC (Klebsiella pneumoniae [36]) was 4 µM. The Stability (Trypsin) was “Stable” and the Stability [37] was “Stable”.
